Data reported in patent KR20170021349A, “다양한 질병의 치료를 위한 jnk 신호 전달 경로의 세포 투과성 펩타이드 억제자의 새로운 용도” (자이겐 인플라메이션 리미티드, priority 2014, dated 2017).
No end group written: not given here.

Legend:
[1] = test system: gerbil; details: Carboni et al. 2004; cited from earlier work
[2] = test system: primary embryonic cultures, PC12 cells, mice; details: at doses inhibiting JNK activation; cited from earlier work
[3] = test system: Sprague-Dawley albino rats; test: Light-induced photoreceptor damage (AMD model), ERG and ONL thickness; format: in vivo, rat; details: for a-wave recovery (% of baseline) / b-wave recovery (% of baseline): 50 mg/kg i.p. x5
[4] = test system: C57BL/6N mice; details: Wang et al. 2004; cited from earlier work
[5] = Phase II trial, post-surgery intraocular inflammation, vs dexamethasone eye drops; format: in vivo, human
[6] = test system: Sprague-Dawley rats; test: STZ diabetic nephropathy model, chronic administration; format: in vivo, rat; details: 25 mg/kg po daily
[7] = test system: JNK; details: Dickens et al. 1997; cited from earlier work
[8] = test system: TC-3 cells; test: Cellular import of fluorescein-labelled TAT and TAT-IB1(s) peptides; format: cell-based; details: for time to enter cells: 1 μM labelled peptide
[9] = test system: AP-1 DNA binding complex in HeLa nuclear extracts; test: Gel retardation assay, AP-1 DNA binding complex after TNF-alpha; format: cell-based; details: added 30 min before TNF-alpha 5 ng/ml
[10] = test system: TC-3 cells; test: IL-1-induced pancreatic beta-cell apoptosis; format: cell-based; details: 1 μM single addition

Molecule: N#CC(c1ccnc(NCCc2cccnc2)n1)c1nc2ccccc2s1 (stereo not shown) [AS601245]
- protection against delayed loss of hippocampal CA1 neurons [1]: 현저한 보호를 제공한다

Molecule: CCSCc1ccc2c(c1)c1c3c(c4c5cc(CSCC)ccc5n5c4c1n2[C@H]1C[C@](O)(C(=O)OC)[C@]5(C)O1)CNC3=O [CEP-1347]
- neuronal survival [2]: 신경 생존을 촉진한다

Molecule: CC(C)(C)/[N+]([O-])=C/c1ccccc1 [PBN, 페닐-N-tert-부틸니트론, reference compound]
- a-wave recovery (% of baseline) ([3]; day 9): 70.4%
- b-wave recovery (% of baseline) ([3]; day 9): 100%
- a-wave recovery (% of baseline) ([3]; day 16): 79.6%
- b-wave recovery (% of baseline) ([3]; day 16): 103.6%
- a-wave recovery (% of baseline) ([3]; day 23): 76.2%
- b-wave recovery (% of baseline) ([3]; day 23): 102.4%
- ONL thickness loss (% vs non-induced control eyes) ([3]; ip 50 mg/kg): 16%
- ONL thickness ([3]; ip 50 mg/kg, day 23, p<0.05 vs vehicle): 34.05 ± 4.00 μm

Molecule: Oc1c2ccccc2c2c3c(cccc13)N=N2 [SP600125]
- level of c-Jun phosphorylation [4]: c-Jun 인산화의 수준을 감소

Molecule: C[C@@H]1C[C@H]2[C@@H]3CCC4=CC(=O)C=C[C@]4(C)[C@@]3(F)[C@@H](O)C[C@]2(C)[C@@]1(O)C(=O)CO [덱사메타손, reference compound]
- AEs leading to interruption of study treatment, events (%) ([5]; eye drops): 3 (5.5%)
- mild AEs, number of events (%) ([5]; eye drops): 42 (76.4%)
- moderate AEs, number of events (%) ([5]; eye drops): 9 (16.4%)
- patients with an AE within 24 h of administration ([5]; eye drops): 30%
- patients with intraocular pressure increased ([5]; eye drops): 14%
- severe AEs, number of events (%) ([5]; eye drops): 4 (7.3%)
- patients with rescue medication introduced ([5]; eye drops 1 mg/ml 4x/day 21 d): 4.0%
- SOC eye disorders, patients ([5]; eye drops (16 patients)): 32%
- premature withdrawal of study eye drops, patients (%) ([5]; eye drops (N=50)): 3 (6.0%)
- patients with an adverse event ([5]; eye drops, 29/50): 58%

Molecule: CCCCc1nc(Cl)c(CO)n1Cc1ccc(-c2ccccc2-c2nn[nH]n2)cc1 [로사르탄, 로사르탄 칼륨, reference compound]
- body weight vs vehicle-treated STZ rats [6]: 현저하게 낮았다

Molecule: IPSPSVEEPHKHRPTTLRLTTLGAQDS [IB2-long]
- fold more efficient than c-Jun or ATF2 in binding JNK [7]: ~100 배

Molecule: NH2-GRKKRRQRRR-COOH (H-GRKKRRQRRR-OH) [L-TAT]
- time to enter cells [8]: < 5 분

Molecule: NH2-GRKKRRQRRRPPRPKRPTTLNLFPQVPRSQD-COOH (H-GRKKRRQRRRPPRPKRPTTLNLFPQVPRSQD-OH) [L-TAT-IB1(s)]
- time to enter cells [8]: < 5 분
- formation of AP-1 DNA binding complex [9]: 감소시켰다
- long-term protection against IL-1-induced cell death ([10]; 15 days IL-1): 그렇지 않았다

Molecule: NH2-RRRQRRKKRG-COOH (H-RRRQRRKKRG-OH; also: D-amino acids (positions not given here)) [D-TAT]
- stability inside cells [8]: 극도로 안정하다
- time to enter cells [8]: < 5 분

Molecule: PGTGCGDTYRPKRPTTLNLFPQVPRSQDT [IB1-long]
- fold more efficient than c-Jun or ATF2 in binding JNK [7]: ~100 배

Molecule: TDQSRPVQPFLNLTTPRKPRYTDPPRRRQRRKKRG (also: D-amino acids (positions not given here)) [D-TAT-IB1]
- IL-1-induced apoptosis ([10]; 2 days IL-1, similar extent as L-TAT-IB): 감소시켰다
